Among the data in ChEMBL document CHEMBL5727716, “Guanidine derivative and medical use thereof” (2020) are IC50 values, retold here.

In the test the target is T1, Mucosa-associated lymphoid tissue lymphoma translocation protein 1 (Homo sapiens, UniProt Q9UDY8).
T1 sequence (Q9UDY8 whole entry): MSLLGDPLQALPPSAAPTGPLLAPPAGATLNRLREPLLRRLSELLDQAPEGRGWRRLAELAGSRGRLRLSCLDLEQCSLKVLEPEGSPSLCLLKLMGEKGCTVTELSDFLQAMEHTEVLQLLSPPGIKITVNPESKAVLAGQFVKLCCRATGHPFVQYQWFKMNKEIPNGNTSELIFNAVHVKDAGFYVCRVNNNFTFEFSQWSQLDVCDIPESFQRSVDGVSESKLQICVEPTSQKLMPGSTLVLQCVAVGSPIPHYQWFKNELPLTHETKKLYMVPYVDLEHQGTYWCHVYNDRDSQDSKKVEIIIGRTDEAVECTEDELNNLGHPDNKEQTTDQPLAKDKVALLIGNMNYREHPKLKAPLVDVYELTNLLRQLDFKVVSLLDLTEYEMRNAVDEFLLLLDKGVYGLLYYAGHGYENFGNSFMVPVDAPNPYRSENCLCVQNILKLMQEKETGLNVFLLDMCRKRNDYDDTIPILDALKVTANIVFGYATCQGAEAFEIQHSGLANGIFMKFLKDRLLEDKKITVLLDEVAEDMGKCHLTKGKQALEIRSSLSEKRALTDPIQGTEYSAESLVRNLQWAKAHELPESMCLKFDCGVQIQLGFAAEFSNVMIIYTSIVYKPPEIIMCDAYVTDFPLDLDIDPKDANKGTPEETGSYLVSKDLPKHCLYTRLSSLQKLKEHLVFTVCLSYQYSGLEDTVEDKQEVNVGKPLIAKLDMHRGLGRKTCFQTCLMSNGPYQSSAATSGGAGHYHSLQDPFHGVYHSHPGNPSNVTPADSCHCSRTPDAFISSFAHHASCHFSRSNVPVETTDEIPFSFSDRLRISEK
As to the kind of experiment: Inhibition of Protease Activity Assay: Full-length cDNA of human MALT1 gene (GenBank accession No: AB026118.1) amplified by PCR was inserted in flame to a SalI site located downstream of GST gene in a pGEX6P3 vector (GE Healthcare Japan Corp.) to prepare a vector (hereinafter, referred to as a pGEX6P3-MALT1 vector). Subsequently, E. coli for protein expression (BL21-RIL-codon plus-DE3, Agilent Technologies, Inc.) was transformed with the pGEX6P3-MALT1 vector and then analyzed by ampicillin resistance screening and colony PCR to obtain an E. coli strain expressing recombinant GST fusion MALT1. Protein expression was induced with isopropyl-(3-thiogalactopyranoside. After the expression induction, E. coli precipitates were recovered by centrifugation from the E. coli culture solution, and the E. coli precipitates were homogenized and then centrifuged to obtain a supernatant. The supernatant was purified using GSTrap FF column (GE Healthcare Japan Corp.) to obtain recombinant GST fusion MALT1.B) Evaluation of Inhibition of Protease Activity of MALT1:To 89 μL of an enzyme solution ([…] GST fusion MALT1, 50 mmol/L MES, 150 mmol/L NaCl, 10% sucrose, 0.1% CHAPS, 10 mmol/L dithiothreitol, and 1 mol/L tri-ammonium citrate) per specimen, 1 μL of a test compound (DMSO-diluted solution) of each concentration was added to prepare a mixed solution. […].

For orientation: IC50 means the point on the concentration scale where inhibition reaches its midpoint.

As for `CCCC(=O)/N=C(\N)NCc1cnc(-c2ccc(Cl)cc2)c(-c2ccc(Cl)cc2)c1`, the IC50 amounted to 0.572 µM.
